Laboratory results taken from patent publication US11680047B2, “Enhanced erythropoiesis and iron metabolism” (FibroGen, Inc., priority 2003, dated 2023).

How the values were obtained:
[1] = test system: healthy human volunteers; assay: Erythropoiesis and iron status in healthy human volunteers; format: in vivo; conditions: human subjects; for soluble transferrin receptor levels, maximum response: day 21
Text: The effect of prolyl hydroxylase inhibition on erythropoiesis in human subjects was examined as follows. […] At various times following compound administration, blood was drawn for analysis of EPO, hemoglobin, hematocrit, red blood cell counts, soluble transferrin receptor, and serum ferritin levels.

[2] = test system: rat model of ACD; assay: Rat model of ACD (PG-PS), Experimental Series 2; format: in vivo
Experimental: Female Lewis rats (approximately 150-200 gm) were injected with PG-PS (intra-peritoneal). Arthritis and anemia were allowed to develop for 28 days. Animals were administered compound A by oral gavage twice a week (Monday and Thursday) for six weeks, corresponding to days 28, 31, 35, 38, 42, 45, 49, 52, 56, 59, 63, 66, and 70 from PG-PS injection.
Whole blood was collected via the tail vein for CBC analysis on days 28, 42, 56, and 70. In addition, serum was collected on day 70 for iron binding analysis. CBC and iron binding analysis were performed by Quality Clinical Labs (Mountain View, Calif.).
Patients with anemia of chronic disease are clinically characterized by reduced plasma iron concentrations and transferrin saturation. The effect of the present compounds on serum iron and transferrin saturation in normal and anemic animals was determined. Using an animal model of anemia of chronic disease, anemia was induced in rats by IP injection of peptidoglycan-polysaccharide polymers, as described above. Arthritis and anemia were allowed to develop for 28 days. Animals were then treated with various concentrations of compound A, twice weekly, for 6 weeks. Serum iron levels and transferrin saturation were determined by Quality Clinical Labs.

[3] = test system: Hepcidin; assay: Hepcidin mRNA expression in mouse liver (microarray); format: in vivo
Experimental: Compounds were generally administered orally by gavage or IV administration. Animals treated by oral gavage received a 4-10 ml/kg volume of either 0.5% carboxymethyl cellulose (CMC; Sigma-Aldrich, St. Louis Mo.) with or without 0.1% Polysorbate 80 (0 mg/kg/day) or varying doses of a compound of the present invention (e.g., a HIF prolyl hydroxylase inhibitor) in 0.5% CMC, with or without 0.1% Polysorbate 80, using various dosing regimens. Blood samples were collected at appropriate intervals during treatment from, e.g., tail vein (rats), or abdominal vein or cardiocentesis (mice or rats). Generally, animals were anesthetized with isoflurane and blood samples were collected into MICROTAINER serum separator tubes (Becton-Dickinson, Franklin Lakes N.J.). For measurement of serum components, the tubes were incubated at room temperature for 30 minutes, and then centrifuged at 8,000 rpm at 4° C. for 10 minutes. The serum fraction was then processed and analyzed for the presence of specific components, e.g., serum iron (assay performed by Quality Clinical Labs, Mountain View, Calif.). For determination of hematocrit, blood samples were collected into MICROTAINER EDTA-2K tubes (Becton-Dickinson); EDTA-blood was then drawn into 75 mm×1.1-1.2 mm I.D. capillary tubes (Chase Scientific Glass, Inc., Rockwood Tenn.) to approximately % length, one end of the tube was sealed with CRITOSEAL sealant (Sherwood Medical Company), and the tubes were centrifuged in a J-503M MICROHEMATOCRIT centrifuge (Jorgensen Laboratories, Inc., Loveland Colo.) at 12,000 rpm for 5 minutes. Hematocrit was read against a reader card. When indicated, complete blood count (CBC) analysis, including blood hemoglobin level, reticulocyte number, and hematocrit, was performed by Quality Clinical Labs (Mountain View, Calif.).
Swiss Webster male mice were treated as described above with a single dose of 0.5% CMC (Sigma-Aldrich) (0 mg/kg) or 100 mg/kg compound A. At 4, 8, 16, 24, 48, or 72 hours post-administration, animals were anesthetized, sacrificed, and tissue samples of kidney, liver, brain, lung, and heart were isolated and stored in RNALATER solution (Ambion) at −80° C. Alternatively, animals were treated to 4 consecutive daily doses of 0.5% CMC (0 mg/kg/day), 7.5 mg/ml compound A in 0.5% CMC (30 mg/kg/day), or 25 mg/ml compound A in 0.5% CMC (100 mg/kg/day). Four hours after administration of the final dose, animals were anesthetized, sacrificed, and approximately 150 mg of liver and each kidney were isolated and stored in RNALATER solution (Ambion) at −20° C.
RNA isolation was carried out using the following protocol. A section of each organ was diced, 875 μl of RLT buffer (RNEASY kit; Qiagen Inc., Valencia Calif.) was added, and the pieces were homogenized for about 20 seconds using a rotor-stator POLYTRON homogenizer (Kinematica, Inc., Cincinnati Ohio). The homogenate was micro-centrifuged for 3 minutes to pellet insoluble material, the supernatant was transferred to a new tube and RNA was isolated using an RNEASY kit (Qiagen) according to the manufacturer's instructions. The RNA was eluted into 80 μL of water and quantitated with RIBOGREEN reagent (Molecular Probes, Eugene Oreg.). The absorbance at 260 and 280 nm was measured to determine RNA purity and concentration.
Alternatively, tissue samples were diced and homogenized in TRIZOL reagent (Invitrogen Life Technologies, Carlsbad Calif.) using a rotor-stator POLYTRON homogenizer (Kinematica). Homogenates were brought to room temperature, 0.2 volumes chloroform was added, and samples were mixed vigorously. Mixtures were incubated at room temperature for several minutes and then were centrifuged at 12,000 g for 15 min at 4° C. The aqueous phase was collected and 0.5 volumes of isopropanol were added. Samples were mixed, incubated at room temperature for 10 minutes, and centrifuged for 10 min at 12,000 g at 4° C. […]

[4] = test system: VCAM-1; assay: IL-1β induced VCAM-1 expression in HUVEC; format: cell-based, human; conditions: IL-1β 1 ng/ml, 1 day
Experimental: To investigate the effect of HIF prolyl hydroxylase inhibition on IL-1β induced VCAM-1 expression, HUVEC (human umbilical vein endothelial cells) were stimulated with IL-1β in the absence or presence of various concentrations of compound B or compound C for 1 day. VCAM expression was then measured.

[5] = anemic rats, twice a week for six weeks

Question: Which results are given for O=C(O)CNC(=O)c1nc(Cl)c2ccccc2c1O [Compound A, [(1-Chloro-4-hydroxy-isoquinoline-3-carbonyl)-amino]-acetic acid]?
Answer: red blood cell count ([1]; 20 mg/kg twice weekly or three-times per week): increased red blood cell count in human subjects; soluble transferrin receptor levels, maximum response ([1]; 2-times per week): 35%; soluble transferrin receptor levels, maximum response ([1]; 3-times per week): 31%; decrease of serum ferritin levels ([1]; oral 20 mg/kg): approximately 46%; Reticulocyte levels ([1]; oral 20 mg/kg twice or three-times weekly): > 1.7 % of red blood cells; hematocrit levels ([1]; twice weekly for three weeks): greater than 46%; serum iron levels ([2]; anemic (PG-PS) and non-anemic control (sham) rats, twice weekly, 6 weeks): increased serum iron levels; hemoglobin levels ([2]; anemic rats, 10 mg/kg, 20 mg/kg or 40 mg/kg twice weekly): hemoglobin levels increased; red blood cell counts ([2]; anemic rats, from 2 weeks, over the 6 week period): red blood cell counts were increased; hematocrit levels ([2]; anemic rats, oral gavage twice a week): increased hematocrit levels; mean corpuscular hemoglobin levels [2, 5]: reduction in the decrease in mean corpuscular hemoglobin levels; mean corpuscular volume [2, 5]: reduction of the decrease in mean corpuscular volume; hemoglobin levels ([2]; non-anemic rats, 40 mg/kg twice a week): approximately 110 % of that in non-treated control animals; hematocrit levels ([2]; non-challenged (non-anemic) rats, 40 mg/kg twice a week): greater than 110 % of that in non-challenged non-treated animals; transferrin saturation ([2]; vs non-treated non-anemic and non-treated anemic rats, twice weekly, 6 weeks): increased transferrin saturation; Hepcidin (relative mRNA levels) ([3]; animal study I, multi high dose): 0.275; Hepcidin (relative mRNA levels) ([3]; animal study II, multi high dose): 0.703; Hepcidin (relative mRNA levels) ([3]; animal study II, multi low dose): 0.129; Hepcidin (relative mRNA levels) ([3]; animal study III, 4 hour): 0.672; Hepcidin (relative mRNA levels) ([3]; animal study III, 8 hour): 0.305; Hepcidin (relative mRNA levels) ([3]; animal study III, 16 hour): 0.119

Question: O=C(O)CNC(=O)c1ncc2cc(Oc3ccccc3)ccc2c1O [Compound B, [(4-Hydroxy-7-phenoxy-isoquinoline-3-carbonyl)-amino]-acetic acid] was tested. Which “inhibition of IL-1β induced VCAM-1 expression” value [4] did it give?
Answer: does-dependent inhibition of IL-1β induced VCAM-1 expression
